Data as given in ChEMBL document CHEMBL3421553, “Design, synthesis, and biological evaluation of benzoselenazole-stilbene hybrids as multi-target-directed anti-cancer agents” (Eur J Med Chem, 2015).
Blank lines part the entries; values can stand above or below the molecule they belong to. Activity calls are given as the source filed them. The rule behind the calls is not given here.

Legend:
[1] = Antiproliferative activity against human Bel7402 cells assessed as cell viability after 48 hrs by MTT assay; format: functional, cell-based; details: Bel-7402, 48 h
A549 = experiment: Antiproliferative activity against human A549 cells assessed as cell viability after 48 hrs by MTT assay; format: functional, cell-based; details: A549, 48 h
HeLa = experiment: Antiproliferative activity against human HeLa cells assessed as cell viability after 48 hrs by MTT assay; format: functional, cell-based
MCF7 = experiment: Antiproliferative activity against human MCF7 cells assessed as cell viability after 48 hrs by MTT assay; format: functional, cell-based; details: MCF7, 48 h
[2] = Aqueous solubility of the compound in phosphate buffer at pH 7.4; format: physicochemical
[3] = Inhibition of rat liver TrxR assessed as increase in absorbance by DTNB assay
Rattus norvegicus = organism: Rattus norvegicus; experiment: Inhibition of rat liver TrxR assessed as increase in absorbance at 10 uM by DTNB assay
[4] = Cell cycle arrest in human Bel7402 cells assessed as cells accumulation at Sub-G1 phase at 1 uM after 48 hrs by flow cytometry (reference value: 1.47%); format: functional, cell-based; details: Bel-7402
[5] = Cell cycle arrest in human Bel7402 cells assessed as cells accumulation at G1 phase at 1 uM after 48 hrs by flow cytometry (reference value: 62.60%); format: functional, cell-based; details: Bel-7402
[6] = Cell cycle arrest in human Bel7402 cells assessed as cells accumulation at S phase at 1 uM after 48 hrs by flow cytometry (reference value: 13.99%); format: functional, cell-based; details: Bel-7402
[7] = Cell cycle arrest in human Bel7402 cells assessed as cells accumulation at G2/M phase at 1 uM after 48 hrs by flow cytometry (reference value: 16.61%); format: functional, cell-based; details: Bel-7402
[8] = Cell cycle arrest in human Bel7402 cells assessed as cells accumulation at Sub-G1 phase at 0.5 uM after 48 hrs by flow cytometry (reference value: 1.47%); format: functional, cell-based; details: Bel-7402
[9] = Cell cycle arrest in human Bel7402 cells assessed as cells accumulation at G1 phase at 0.5 uM after 48 hrs by flow cytometry (reference value: 62.60%); format: functional, cell-based; details: Bel-7402
[10] = Cell cycle arrest in human Bel7402 cells assessed as cells accumulation at S phase at 0.5 uM after 48 hrs by flow cytometry (reference value: 13.99%); format: functional, cell-based; details: Bel-7402
[11] = Cell cycle arrest in human Bel7402 cells assessed as cells accumulation at G2/M phase at 0.5 uM after 48 hrs by flow cytometry (reference value: 16.61%); format: functional, cell-based; details: Bel-7402
[12] = Cell cycle arrest in human Bel7402 cells assessed as cells accumulation at Sub-G1 phase at 3 uM after 48 hrs by flow cytometry (reference value: 1.47%); format: functional, cell-based; details: Bel-7402
[13] = Cell cycle arrest in human Bel7402 cells assessed as cells accumulation at G1 phase at 3 uM after 48 hrs by flow cytometry (reference value: 62.60%); format: functional, cell-based; details: Bel-7402
[14] = Cell cycle arrest in human Bel7402 cells assessed as cells accumulation at S phase at 3 uM after 48 hrs by flow cytometry (reference value: 13.99%); format: functional, cell-based; details: Bel-7402
[15] = Cell cycle arrest in human Bel7402 cells assessed as cells accumulation at G2/M phase at 3 uM after 48 hrs by flow cytometry (reference value: 16.61%); format: functional, cell-based; details: Bel-7402
[16] = Cell cycle arrest in human Bel7402 cells assessed as cells accumulation at Sub-G1 phase at 5 uM after 48 hrs by flow cytometry (reference value: 1.47%); format: functional, cell-based; details: Bel-7402
[17] = Cell cycle arrest in human Bel7402 cells assessed as cells accumulation at G1 phase at 5 uM after 48 hrs by flow cytometry (reference value: 62.60%); format: functional, cell-based; details: Bel-7402
[18] = Cell cycle arrest in human Bel7402 cells assessed as cells accumulation at S phase at 5 uM after 48 hrs by flow cytometry (reference value: 13.99%); format: functional, cell-based; details: Bel-7402
[19] = Cell cycle arrest in human Bel7402 cells assessed as cells accumulation at G2/M phase at 5 uM after 48 hrs by flow cytometry (reference value: 16.61%); format: functional, cell-based; details: Bel-7402
Bel-7402 [20] = experiment: Induction of apoptosis in human Bel7402 cells assessed as detection error cells at 1 uM after 48 hrs by flow cytometry (reference value: 0.43%); format: functional
Bel-7402 [21] = experiment: Induction of apoptosis in human Bel7402 cells assessed as necrotic cells at 1 uM after 48 hrs by flow cytometry (reference value: 0.19%); format: functional
Bel-7402 [22] = experiment: Induction of apoptosis in human Bel7402 cells assessed as apoptotic cells at 1 uM after 48 hrs by flow cytometry (reference value: 0.73%); format: functional
Bel-7402 [23] = experiment: Induction of apoptosis in human Bel7402 cells assessed as live cells at 1 uM after 48 hrs by flow cytometry (reference value: 98.65%); format: functional
Bel-7402 [24] = experiment: Induction of apoptosis in human Bel7402 cells assessed as detection error cells at 0.5 uM after 48 hrs by flow cytometry (reference value: 0.43%); format: functional
Bel-7402 [25] = experiment: Induction of apoptosis in human Bel7402 cells assessed as necrotic cells at 0.5 uM after 48 hrs by flow cytometry (reference value: 0.19%); format: functional
Bel-7402 [26] = experiment: Induction of apoptosis in human Bel7402 cells assessed as apoptotic cells at 0.5 uM after 48 hrs by flow cytometry (reference value: 0.73%); format: functional
Bel-7402 [27] = experiment: Induction of apoptosis in human Bel7402 cells assessed as live cells at 0.5 uM after 48 hrs by flow cytometry (reference value: 98.65%); format: functional
Bel-7402 [28] = experiment: Induction of apoptosis in human Bel7402 cells assessed as detection error cells at 3 uM after 48 hrs by flow cytometry (reference value: 0.43%); format: functional
Bel-7402 [29] = experiment: Induction of apoptosis in human Bel7402 cells assessed as necrotic cells at 3 uM after 48 hrs by flow cytometry (reference value: 0.19%); format: functional
Bel-7402 [30] = experiment: Induction of apoptosis in human Bel7402 cells assessed as apoptotic cells at 3 uM after 48 hrs by flow cytometry (reference value: 0.73%); format: functional
Bel-7402 [31] = experiment: Induction of apoptosis in human Bel7402 cells assessed as live cells at 3 uM after 48 hrs by flow cytometry (reference value: 98.65%); format: functional
Bel-7402 [32] = experiment: Induction of apoptosis in human Bel7402 cells assessed as detection error cells at 5 uM after 48 hrs by flow cytometry (reference value: 0.43%); format: functional
Bel-7402 [33] = experiment: Induction of apoptosis in human Bel7402 cells assessed as necrotic cells at 5 uM after 48 hrs by flow cytometry (reference value: 0.19%); format: functional
Bel-7402 [34] = experiment: Induction of apoptosis in human Bel7402 cells assessed as apoptotic cells at 5 uM after 48 hrs by flow cytometry (reference value: 0.73%); format: functional
Bel-7402 [35] = experiment: Induction of apoptosis in human Bel7402 cells assessed as live cells at 5 uM after 48 hrs by flow cytometry (reference value: 98.65%); format: functional

IC50 (A549): 3.73 µM
IC50 (HeLa): 3.8 µM
IC50 (MCF7): 7.78 µM
solubility [2]: > 100 µM
IC50 [3]: 8.27 µM
Compound: COc1cc(/C=C/c2ccc(-n3[se]c4ccccc4c3=O)cc2)cc(OC)c1
IC50 [1]: 3.49 µM

IC50 (A549): 0.52 µM
IC50 (HeLa): 0.23 µM
IC50 (MCF7): 0.47 µM
solubility [2]: < 10 µM
inhibition (Rattus norvegicus): 36.4%
Compound: COc1cc(/C=C/c2ccc(-n3[se]c4cc(Cl)ccc4c3=O)cc2)cc(OC)c1
IC50 [1]: 0.79 µM

IC50 (A549): 1.22 µM
IC50 (HeLa): 0.64 µM
IC50 (MCF7): 0.51 µM
solubility [2]: < 10 µM
inhibition (Rattus norvegicus): 36.6%
Compound: COc1cc(/C=C/c2ccc(-n3[se]c4cc(F)ccc4c3=O)cc2)cc(OC)c1
IC50 [1]: 0.99 µM

IC50 (A549): 6.95 µM
IC50 (HeLa): 12 µM
IC50 (MCF7): 16.9 µM
solubility [2]: < 20 µM
inhibition (Rattus norvegicus): 38.4%
Compound: COc1ccc(/C=C/c2ccc(-n3[se]c4ccc(Cl)cc4c3=O)cc2)cc1OC
IC50 [1]: 6.13 µM

IC50 (A549): 1.53 µM
IC50 (HeLa): 1.52 µM
IC50 (MCF7): 3.37 µM
solubility [2]: > 100 µM
IC50 [3]: 3.1 µM
Compound: COc1ccc(/C=C/c2ccc(-n3[se]c4ccccc4c3=O)cc2)cc1OC
IC50 [1]: 1.01 µM
Activity [4]: 5.15%
Activity [5]: 49%
Activity [6]: 6.93%
Activity [7]: 33.8%
Activity [8]: 0.2%
Activity [9]: 55.8%
Activity [10]: 14%
Activity [11]: 22.2%
Activity [12]: 5.47%
Activity [13]: 40.4%
Activity [14]: 9.57%
Activity [15]: 42%
Activity [16]: 6.69%
Activity [17]: 37%
Activity [18]: 8.32%
Activity [19]: 44.2%
Activity (Bel-7402 [20]): 3.45%
Activity (Bel-7402 [21]): 3.04%
Activity (Bel-7402 [22]): 13.55%
Activity (Bel-7402 [23]): 79.95%
Activity (Bel-7402 [24]): 2.22%
Activity (Bel-7402 [25]): 1.29%
Activity (Bel-7402 [26]): 6.73%
Activity (Bel-7402 [27]): 89.75%
Activity (Bel-7402 [28]): 2.39%
Activity (Bel-7402 [29]): 5.49%
Activity (Bel-7402 [30]): 36.71%
Activity (Bel-7402 [31]): 55.41%
Activity (Bel-7402 [32]): 2.95%
Activity (Bel-7402 [33]): 5.26%
Activity (Bel-7402 [34]): 53.63%
Activity (Bel-7402 [35]): 38.16%

IC50 (A549): 43 µM
IC50 (HeLa): 28.4 µM
IC50 (MCF7): 56.3 µM
IC50 [3]: 9.62 µM
Compound: COc1cc(/C=C\c2ccc(-n3[se]c4ccccc4c3=O)cc2)cc(OC)c1
IC50 [1]: 36.1 µM

IC50 (A549): > 10 µM
IC50 (HeLa): > 10 µM
IC50 (MCF7): > 10 µM
solubility [2]: < 10 µM
inhibition (Rattus norvegicus): inactive
Compound: COc1ccc(/C=C/c2ccc(N3Cc4ccccc4C3=O)cc2)cc1OC
IC50 [1]: > 10 µM
